In US9394310B2, “Carbocycle-substituted purine and 7-deazapurine compounds” (Epizyme, Inc., priority 2010, dated 2016):
Counter-ions that a name gives are not always drawn.

Target: T1, DOT1L (1-416) (Homo sapiens, UniProt Q8TEK3)
T1 construct: 40 μl per well of DOT1L (1-416) (0.25 nM final concentration in assay buffer)
Assay: Determination of IC50: DOT1L (1-416) methyltransferase assay with 3H-SAM and oligonucleosome, Flashplate scintillation readout
Type: biochemical
Conditions: 0.25 nM DOT1L (1-416), 30 min preincubation, 120 min reaction at room temperature, oligonucleosome substrate
Method: Compound was serially diluted 3 fold in DMSO for 10 points and 1 μl was plated in a 384 well microtiter plate. Positive control (100% inhibition standard) was 2.5 uM final concentration of S-adenosyl-L-homocysteine and negative control (0% inhibition standard) contained 1 μl of DMSO. Compound was then incubated for 30 minutes with 40 μl per well of DOT1L (1-416) (0.25 nM final concentration in assay buffer: 20 mM TRIS, pH 8.0, 10 mM NaCl, 0.002% Tween20, 0.005% Bovine Skin Gelatin, 100 mM KCl, and 0.5 mM DTT). 10 μl per well of substrate mix (same assay buffer with 200 nM S—[methyl-^3H]-adenosyl-L methionine, 600 nM of unlabeled […], and 20 nM oligonucleosome) was added to initiate the reaction. Reaction was incubated for 120 minutes at room temperature and quenched with 10 μl per well of 100 μM S-methyl-adenosyl-L methionine. For detection, substrate from 50 μl of reaction was immobilized on a 384 well Streptavidin coated Flashplate (Perkin Elmer) (also coated with 0.2% polyethyleneimine) and read on a Top Count scintillation counter (Perkin Elmer).

T1 sequence (Q8TEK3 1-416): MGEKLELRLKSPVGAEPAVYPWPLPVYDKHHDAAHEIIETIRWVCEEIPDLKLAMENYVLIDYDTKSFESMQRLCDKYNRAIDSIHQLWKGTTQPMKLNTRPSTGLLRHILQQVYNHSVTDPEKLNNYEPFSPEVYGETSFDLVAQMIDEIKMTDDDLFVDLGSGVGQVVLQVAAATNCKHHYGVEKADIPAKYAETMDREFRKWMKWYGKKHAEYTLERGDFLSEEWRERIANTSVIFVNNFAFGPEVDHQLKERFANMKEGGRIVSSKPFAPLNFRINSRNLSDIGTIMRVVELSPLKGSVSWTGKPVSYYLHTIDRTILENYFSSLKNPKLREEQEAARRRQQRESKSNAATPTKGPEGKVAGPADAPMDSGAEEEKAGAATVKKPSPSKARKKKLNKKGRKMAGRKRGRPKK

SMILES	IC50
CC(C)N(CCCCc1nc2cc(C(C)(C)C)ccc2[nH]1)C[C@H]1C[C@@H](n2ccc3c(N)ncnc32)[C@H](O)[C@@H]1O [Compound 1, (1R,2S,3R,5R)-3-(4-amino-7H-pyrrolo[2,3-d]pyrimidin-7-yl)-5-(((4-(5-tert-butyl-1H-benzo[d]imidazol-2-yl)butyl)(isopropyl)amino)methyl)-cyclopentane-1,2-diol]	< 100 nM
CC(C)N(CCCCc1nc2cc(C(C)(C)C)ccc2[nH]1)C[C@@H]1C[C@@H](n2ccc3c(N)ncnc32)[C@H](O)[C@@H]1O [Compound 2, (1R,2S,3R,5S)-3-(4-amino-7H-pyrrolo[2,3-d]pyrimidin-7-yl)-5-(((4-(5-tert-butyl-1H-benzo[d]imidazol-2-yl)butyl)(isopropyl)amino)methyl)-cyclopentane-1,2-diol]	< 100 nM
CN(CCCNC(=O)Nc1ccc(C(C)(C)C)cc1)C[C@@H]1C[C@@H](n2cnc3c(N)ncnc32)[C@H](O)[C@@H]1O [Compound 3, 1-(3-((((1S,2R,3S,4R)-4-(6-amino-9H-purin-9-yl)-2,3-dihydroxycyclopentyl)methyl)-(methyl)amino)propyl)-3-(4-(tert-butyl)phenyl)urea]	< 1000 nM
CC(C)N(CCCCc1nc2cc(C(F)(F)F)c(Cl)cc2[nH]1)C[C@H]1C[C@@H](n2ccc3c(NC4CC4)ncnc32)[C@H](O)[C@@H]1O [Compound 4, (1S,2R,3R,5R)-3-(((4-(6-chloro-5-(trifluoromethyl)-1H-benzo[d]imidazol-2-yl)butyl)(isopropyl)amino)methyl)-5-(4-(cyclopropylamino)-7H-pyrrolo[2,3-d]pyrimidin-7-yl)cyclopentane-1,2-diol]	< 100 nM
CN(CCCCc1nc2cc(C(F)(F)F)c(Cl)cc2[nH]1)C[C@H]1C[C@@H](n2ccc3c(NC4CC4)ncnc32)[C@H](O)[C@@H]1O [Compound 5, (1S,2R,3R,5R)-3-(((4-(6-chloro-5-(trifluoromethyl)-1H-benzo[d]imidazol-2-yl)butyl)(methyl)amino)methyl)-5-(4-(cyclopropylamino)-7H-pyrrolo[2,3-d]pyrimidin-7-yl)cyclopentane-1,2-diol]	< 100 nM
CC(C)N(CCCCc1nc2ccc(C(F)(F)F)cc2[nH]1)C[C@H]1C[C@@H](n2ccc3c(NC4CC4)ncnc32)[C@H](O)[C@@H]1O [Compound 6, (1R,2S,3R,5R)-3-(4-(cyclopropylamino)-7H-pyrrolo[2,3-d]pyrimidin-7-yl)-5-((isopropyl-(4-(6-(trifluoromethyl)-1H-benzo[d]imidazol-2-yl)butyl)amino)methyl)-cyclopentane-1,2-diol]	< 100 nM
CN(CCCCc1nc2ccc(C(F)(F)F)cc2[nH]1)C[C@H]1C[C@@H](n2ccc3c(NC4CC4)ncnc32)[C@H](O)[C@@H]1O [Compound 7, (1R,2S,3R,5R)-3-(4-(cyclopropylamino)-7H-pyrrolo[2,3-d]pyrimidin-7-yl)-5-((methyl(4-(6-(trifluoromethyl)-1H-benzo[d]imidazol-2-yl)butyl)amino)methyl)-cyclopentane-1,2-diol]	< 100 nM
CN(CCCCc1nc2cc(Cl)c(Cl)cc2[nH]1)C[C@H]1C[C@@H](n2ccc3c(NC4CC4)ncnc32)[C@H](O)[C@@H]1O [Compound 8, (1R,2S,3R,5R)-3-(4-(cyclopropylamino)-7H-pyrrolo[2,3-d]pyrimidin-7-yl)-5-(((4-(5,6-dichloro-1H-benzo[d]imidazol-2-yl)butyl)(methyl)amino)methyl)-cyclopentane-1,2-diol]	< 100 nM
CC(C)N(CCCCc1nc2cc(Cl)c(Cl)cc2[nH]1)C[C@H]1C[C@@H](n2ccc3c(NC4CC4)ncnc32)[C@H](O)[C@@H]1O [Compound 9, (1R,2S,3R,5R)-3-(4-(cyclopropylamino)-7H-pyrrolo[2,3-d]pyrimidin-7-yl)-5-(((4-(5,6-dichloro-1H-benzo[d]imidazol-2-yl)butyl)(isopropyl)amino)methyl)-cyclopentane-1,2-diol trihydrochloride]	< 100 nM
CN(CCCNC(=O)Nc1ccc(C(C)(C)C)cc1)C[C@H]1C[C@@H](n2cnc3c(N)ncnc32)[C@H](O)[C@@H]1O [Compound 10, 1-(3-((((1R,2R,3S,4R)-4-(6-amino-9H-purin-9-yl)-2,3-dihydroxycyclopentyl)methyl)(meth-yl)amino)propyl)-3-(4-(tert-butyl)phenyl)urea]	< 100 nM
CC(C)(C)c1ccc2[nH]c(CCCCN(C[C@H]3C[C@@H](n4ccc5c(NC6CC6)ncnc54)[C@H](O)[C@@H]3O)S(C)(=O)=O)nc2c1 [Compound 11, N-(4-(5-(tert-butyl)-1H-benzo[d]imidazol-2-yl)butyl)-N-(((1R,2R,3S,4R)-4-(4-(cyclopropylamino)-7H-pyrrolo[2,3-d]pyrimidin-7-yl)-2,3-dihydroxycyclopentyl)methyl)-methanesulfonamide]	< 1000 nM
CS(=O)(=O)N(CCCCc1nc2cc(C(F)(F)F)c(Cl)cc2[nH]1)C[C@H]1C[C@@H](n2ccc3c(NC4CC4)ncnc32)[C@H](O)[C@@H]1O [Compound 12, N-(4-(6-chloro-5-(trifluoromethyl)-1H-benzo[d]imidazol-2-yl)butyl)-N-(((1R,2R,3S,4R)-4-(4-(cyclopropylamino)-7H-pyrrolo[2,3-d]pyrimidin-7-yl)-2,3-dihydroxycyclopentyl)methyl)-methanesulfonamide]	< 1000 nM
CN(CCCCc1nc2cc(C(F)(F)F)c(Cl)cc2[nH]1)C[C@H]1C[C@@H](n2ccc3c(N)ncnc32)[C@H](O)[C@@H]1O [Compound 13, (1R,2S,3R,5R)-3-(4-amino-7H-pyrrolo[2,3-d]pyrimidin-7-yl)-5-(((4-(6-chloro-5-(trifluoromethyl)-1H-benzo[d]imidazol-2-yl)butyl)(methyl)amino)methyl)-cyclopentane-1,2-diol]	< 100 nM
CC(C)N(CCCCc1nc2cc(C(F)(F)F)c(Cl)cc2[nH]1)C[C@H]1C[C@@H](n2ccc3c(N)ncnc32)[C@H](O)[C@@H]1O [Compound 14, (1R,2S,3R,5R)-3-(4-amino-7H-pyrrolo[2,3-d]pyrimidin-7-yl)-5-(((4-(6-chloro-5-(trifluoromethyl)-1H-benzo[d]imidazol-2-yl)butyl)(isopropyl)amino)methyl)-cyclopentane-1,2-diol]	< 100 nM
CS(=O)(=O)N(CCCCc1nc2cc(C(F)(F)F)c(Cl)cc2[nH]1)C[C@H]1C[C@@H](n2ccc3c(N)ncnc32)[C@H](O)[C@@H]1O [Compound 15, N-(((1R,2R,3S,4R)-4-(4-amino-7H-pyrrolo[2,3-d]pyrimidin-7-yl)-2,3-dihydroxycyclopentyl)methyl)-N-(4-(6-chloro-5-(trifluoromethyl)-1H-benzo[d]imidazol-2-yl)butyl)methanesulfonamide]	< 1000 nM
CS(=O)(=O)N(CCCCc1nc2cc(Cl)c(Cl)cc2[nH]1)C[C@H]1C[C@@H](n2ccc3c(NC4CC4)ncnc32)[C@H](O)[C@@H]1O [Compound 16, N-(((1R,2R,3S,4R)-4-(4-(cyclopropylamino)-7H-pyrrolo-[2,3-d]pyrimidin-7-yl)-2,3-dihydroxycyclopentyl)methyl)-N-(4-(5,6-dichloro-1H-benzo[d]imidazol-2-yl)butyl)methanesulfonamide]	< 10000 nM
CS(=O)(=O)N(CCCCc1nc2cc(C(F)(F)F)ccc2[nH]1)C[C@H]1C[C@@H](n2ccc3c(NC4CC4)ncnc32)[C@H](O)[C@@H]1O [Compound 17, N-(((1R,2R,3S,4R)-4-(4-(cyclopropylamino)-7H-pyrrolo-[2,3-d]pyrimidin-7-yl)-2,3-dihydroxycyclopentyl)methyl)-N-(4-(5-(trifluoromethyl)-1H-benzo[d]imidazol-2-yl)butyl)methanesulfonamide]	< 10000 nM
